Tests used:
Assay type in all cases: cell-based
GLUT4 = molecular target: T1, GLUT4 (Homo sapiens, UniProt P14672); assay: GLUT4 transporter activity assay (2-DG uptake) in CHO-hGLUT4 cells; conditions: CHO-hGLUT4 cell line; read-out: GLUT4 inhibitory activity (IC50)
T1 sequence (P14672 1-509): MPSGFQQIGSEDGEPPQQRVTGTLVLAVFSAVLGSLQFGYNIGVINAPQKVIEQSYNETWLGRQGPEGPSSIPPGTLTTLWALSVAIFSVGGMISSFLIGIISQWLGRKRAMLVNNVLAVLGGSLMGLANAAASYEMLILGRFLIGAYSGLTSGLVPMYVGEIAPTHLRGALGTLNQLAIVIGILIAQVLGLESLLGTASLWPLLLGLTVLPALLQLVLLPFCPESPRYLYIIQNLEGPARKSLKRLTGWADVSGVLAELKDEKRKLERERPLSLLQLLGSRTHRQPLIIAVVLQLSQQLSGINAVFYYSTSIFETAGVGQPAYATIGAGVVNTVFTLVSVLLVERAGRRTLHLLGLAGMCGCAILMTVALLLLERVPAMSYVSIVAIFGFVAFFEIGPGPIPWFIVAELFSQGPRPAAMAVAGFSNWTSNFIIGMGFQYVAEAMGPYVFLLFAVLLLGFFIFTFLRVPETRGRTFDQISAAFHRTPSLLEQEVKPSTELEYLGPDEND
Outline: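 Stable CHOK1 clone overexpressing human GLUT4 (7,000 cells/well), in glucose-free RPMI with 1% FCS, incubated with compound and 1 mM 2-DG for 30 min. After acid/CHAPS lysis at 65 °C, 2-DG quantified by G6PDH/diaphorase-coupled resazurin-to-resorufin fluorescence (ex/em 535/590 nm). Blank-subtracted, normalised to DMSO.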

GLUT3 = molecular target: T2, GLUT3 (Homo sapiens, UniProt P11169); assay: GLUT3 transporter activity assay (2-DG uptake) in DLD-1-GLUT1-/- cells; conditions: DLD-1-GLUT1-/- cell line; read-out: GLUT3 inhibitory activity (IC50)
T2 construct: host or cells: DLD-1-GLUT1(-/-) cells
T2 sequence (P11169 1-496): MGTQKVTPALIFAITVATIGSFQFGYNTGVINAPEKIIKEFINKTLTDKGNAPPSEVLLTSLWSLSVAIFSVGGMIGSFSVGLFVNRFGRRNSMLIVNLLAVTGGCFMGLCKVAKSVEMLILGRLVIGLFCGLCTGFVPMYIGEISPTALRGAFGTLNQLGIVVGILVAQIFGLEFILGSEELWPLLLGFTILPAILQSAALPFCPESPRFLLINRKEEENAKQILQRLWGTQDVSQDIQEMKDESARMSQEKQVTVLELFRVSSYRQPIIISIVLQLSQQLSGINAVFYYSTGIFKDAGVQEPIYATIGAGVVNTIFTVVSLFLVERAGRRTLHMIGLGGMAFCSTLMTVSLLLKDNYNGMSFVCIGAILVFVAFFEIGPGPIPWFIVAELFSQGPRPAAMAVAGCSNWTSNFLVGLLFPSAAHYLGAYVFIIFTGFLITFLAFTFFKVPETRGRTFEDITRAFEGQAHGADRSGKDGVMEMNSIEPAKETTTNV
Outline: (§1)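 DLD1 cells (GLUT1) or DLD-1-GLUT1−/− cells (GLUT3) in glucose-free RPMI with 1% FCS, treated with compound plus 1 mM 2-DG for 30 min. Lysate 2-DG measured by G6PDH/diaphorase-coupled resazurin-to-resorufin fluorescence (ex/em 535/590 nm), blank-subtracted and normalized to DMSO control.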

GLUT1 = molecular target: T3, GLUT1 (Homo sapiens, UniProt P11166); assay: GLUT1 transporter activity assay (2-DG uptake) in DLD1 cells; conditions: DLD1 cell line; read-out: GLUT1 inhibitory activity (IC50)
T3 construct: host or cells: DLD-1 (DLD1) cells
T3 sequence (P11166 1-492): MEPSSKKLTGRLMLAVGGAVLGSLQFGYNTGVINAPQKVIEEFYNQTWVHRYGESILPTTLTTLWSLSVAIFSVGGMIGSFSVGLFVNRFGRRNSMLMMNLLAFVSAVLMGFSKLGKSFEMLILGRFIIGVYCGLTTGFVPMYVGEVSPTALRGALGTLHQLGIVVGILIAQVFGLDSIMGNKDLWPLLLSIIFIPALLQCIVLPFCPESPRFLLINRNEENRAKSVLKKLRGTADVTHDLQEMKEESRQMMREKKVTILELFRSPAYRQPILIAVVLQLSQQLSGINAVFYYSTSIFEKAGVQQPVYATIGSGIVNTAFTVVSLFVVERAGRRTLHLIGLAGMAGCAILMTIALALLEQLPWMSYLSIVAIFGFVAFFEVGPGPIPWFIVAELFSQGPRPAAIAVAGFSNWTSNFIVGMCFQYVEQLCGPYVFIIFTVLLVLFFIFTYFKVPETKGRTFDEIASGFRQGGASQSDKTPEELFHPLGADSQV
Outline: as §1

HCT116 cells = assay: 2-Deoxy-Glucose (2-DG) uptake assay in HCT116 cells; conditions: Homo sapiens, HCT-116, 0.5 h, 1 mM 2-DG, 30 min, read-out: IC50 determined for the inhibition of 2-DG uptake in HCT116 cells
Method: The 2-DG uptake assay was carried out as described by Yamamoto N. et al. with slight modifications ([…]). Briefly, 40,000 HCT116 or CHO cells were seeded in black, clear bottom 96-well plates and allowed to attach overnight. Cells were incubated with compounds or DMSO and 1 mM 2-DG in glucose-free KRB buffer (20 mM HEPES, 5 mM KH2PO4, 1 mM MgSO4, 1 mM CaCl2), 136 mM NaCl, 0.1% BSA, pH 7.4) for 30 min. In the case of GLUT-4 transfected cells, Insulin (100 μg/mL) was added to the buffer. Cells were then washed and lysed in 0.06 M HCl and 1% CHAPS for 15 min at 65° C. while shaking. The amount of 2-DG in the lysate was determined by means of enzyme-coupled assay. For this 6.4 U/mL glucose-6-phosphate dehydrogenase, 0.2 U/mL diaphorase, 0.1 mM NADP^+ and 0.025 mg/mL resazurin were added to the lysates. Resorufin fluorescence was determined as a measure of 2-DG uptake at ex/em 535/590 nm with a Tecan Infinite M200 plate reader (Tecan). Blank values were subtracted from all readings and values were normalized to the DMSO control.

| IC50 (GLUT4) [nM] | IC50 (GLUT3) [nM] | IC50 (GLUT1) [nM] | IC50 (HCT116 cells) [nM] | SMILES |
| --- | --- | --- | --- | --- |
| > 25000 | 1000 to 4000 | 1000 to 4000 | ≤ 5000 | Cc1ccc(CCNC(=O)c2cccc(N3C(=O)NC4CC3(C)Oc3c(OCc5ccccc5C)cccc34)c2)cc1 (centres unmarked) [Compound A02, 3-(2-Methyl-10-((2-methylbenzyl)oxy)-4-oxo-5,6-dihydro-2H-2,6-methanobenzo[g][1,3,5]oxadiazocin-3(4H)-yl)-N-(4-methylphenethyl)benzamide] |
| > 25000 | 300 to 1000 | 300 to 1000 | ≤ 5000 | Cc1ccc(CCNC(=O)c2cccc(N3C(=O)NC4CC3(C)Oc3c(OCc5cccc(Cl)c5)cccc34)c2)cc1 (centres unmarked) [Compound A04, 3-(10-((3-Chlorobenzyl)oxy)-2-methyl-4-oxo-5,6-dihydro-2H-2,6-methanobenzo[g][1,3,5]oxadiazocin-3(4H)-yl)-N-(4-methylphenethyl)benzamide] |
